Reference: ChEMBL document CHEMBL3612055, “Design, synthesis and biological evaluation of 1,3-diphenyl-1H-pyrazole derivatives containing benzimidazole skeleton as potential anticancer and apoptosis inducing agents” (Eur J Med Chem, 2015)

What was measured:
HeLa = experiment: Anticancer activity against human HeLa cells assessed as reduction in cell growth incubated for 48 hrs by MTT assay; format: functional, cell-based
A549 = experiment: Anticancer activity against human A549 cells assessed as reduction in cell growth incubated for 48 hrs by MTT assay; format: functional, cell-based; settings: A549, 48 h
HaCaT = experiment: Cytotoxic activity against human HaCaT cells assessed as reduction in cell growth incubated for 48 hrs by MTT assay; format: cell-based
MCF7 = experiment: Anticancer activity against human MCF7 cells assessed as reduction in cell growth incubated for 48 hrs by MTT assay; format: functional, cell-based; settings: MCF7, 48 h

O=Cc1cn(-c2ccccc2)nc1-c1ccc(Cl)cc1
IC50 (HeLa): 15.5 µM | IC50 (A549): 29.5 µM | IC50 (HaCaT): > 50 µM | IC50 (MCF7): 9.65 µM

Fc1ccc(-c2nn(-c3ccccc3)cc2-c2nc3ccccc3[nH]2)cc1
IC50 (HeLa): 2.33 µM | IC50 (A549): 1.51 µM | IC50 (HaCaT): > 50 µM | IC50 (MCF7): 3.2 µM

COc1ccc(-c2nn(-c3ccccc3)cc2-c2nc3ccccc3[nH]2)cc1
IC50 (HeLa): 3.67 µM | IC50 (A549): 2.36 µM | IC50 (HaCaT): > 50 µM | IC50 (MCF7): 2.54 µM

FC(F)(F)c1ccc2[nH]c(-c3cn(-c4ccccc4)nc3-c3ccccc3)nc2c1
IC50 (HeLa): 1.92 µM | IC50 (A549): 5.93 µM | IC50 (HaCaT): 37.2 µM | IC50 (MCF7): 2.66 µM

COc1ccc(-c2nn(-c3ccccc3)cc2-c2nc3cc(C(F)(F)F)ccc3[nH]2)cc1
IC50 (HeLa): 2.76 µM | IC50 (A549): 4.82 µM | IC50 (HaCaT): > 50 µM | IC50 (MCF7): 5.73 µM

COc1ccc2[nH]c(-c3cn(-c4ccccc4)nc3-c3ccccc3)nc2c1
IC50 (HeLa): 2.87 µM | IC50 (A549): 1.23 µM | IC50 (HaCaT): > 50 µM | IC50 (MCF7): 1.59 µM

Fc1ccc(-c2nn(-c3ccccc3)cc2-c2nc3cc(Cl)ccc3[nH]2)cc1
IC50 (HeLa): 2.77 µM | IC50 (A549): 1.32 µM | IC50 (HaCaT): > 50 µM | IC50 (MCF7): 2.23 µM

Fc1ccc2[nH]c(-c3cn(-c4ccccc4)nc3-c3ccccc3)nc2c1
IC50 (HeLa): 3.61 µM | IC50 (A549): 1.72 µM | IC50 (HaCaT): > 50 µM | IC50 (MCF7): 2.43 µM

Cc1cc2nc(-c3cn(-c4ccccc4)nc3-c3ccc(F)cc3)[nH]c2cc1C
IC50 (HeLa): 10.2 µM | IC50 (A549): > 50 µM | IC50 (HaCaT): > 50 µM | IC50 (MCF7): 27.2 µM

Clc1ccc(-c2nn(-c3ccccc3)cc2-c2nc3ccccc3[nH]2)cc1
IC50 (HeLa): 1.65 µM | IC50 (A549): 5.96 µM | IC50 (HaCaT): > 50 µM | IC50 (MCF7): 3.03 µM

Clc1ccc2[nH]c(-c3cn(-c4ccccc4)nc3-c3ccccc3)nc2c1
IC50 (HeLa): 3.48 µM | IC50 (A549): 2.37 µM | IC50 (HaCaT): > 50 µM | IC50 (MCF7): 1.96 µM

COc1ccc(-c2nn(-c3ccccc3)cc2-c2nc3cc(Cl)ccc3[nH]2)cc1
IC50 (HeLa): 1.29 µM | IC50 (A549): 3.13 µM | IC50 (HaCaT): > 50 µM | IC50 (MCF7): 1.76 µM

Cc1ccc2[nH]c(-c3cn(-c4ccccc4)nc3-c3ccccc3)nc2c1
IC50 (HeLa): 6.56 µM | IC50 (A549): 3.61 µM | IC50 (HaCaT): > 50 µM | IC50 (MCF7): 5.94 µM

COc1ccc(-c2nn(-c3ccccc3)cc2-c2nc3cc(F)ccc3[nH]2)cc1
IC50 (HeLa): 1.74 µM | IC50 (A549): 1.98 µM | IC50 (HaCaT): > 50 µM | IC50 (MCF7): 1.51 µM

FC(F)(F)c1ccc2[nH]c(-c3cn(-c4ccccc4)nc3-c3ccc(Cl)cc3)nc2c1
IC50 (HeLa): 4.42 µM | IC50 (A549): 3.36 µM | IC50 (HaCaT): 41.8 µM | IC50 (MCF7): 4.21 µM

Fc1ccc(-c2nn(-c3ccccc3)cc2-c2nc3cc(C(F)(F)F)ccc3[nH]2)cc1
IC50 (HeLa): 3.52 µM | IC50 (A549): 2.34 µM | IC50 (HaCaT): > 50 µM | IC50 (MCF7): 2.13 µM

Clc1cc2nc(-c3cn(-c4ccccc4)nc3-c3ccccc3)[nH]c2cc1Cl
IC50 (HeLa): 13.4 µM | IC50 (A549): 11.1 µM | IC50 (HaCaT): 29.7 µM | IC50 (MCF7): 7.56 µM

Clc1ccc(-c2nn(-c3ccccc3)cc2-c2nc3cc4ccccc4cc3[nH]2)cc1
IC50 (HeLa): 8.13 µM | IC50 (A549): 7.73 µM | IC50 (HaCaT): > 50 µM | IC50 (MCF7): 13.9 µM

Cc1ccc2[nH]c(-c3cn(-c4ccccc4)nc3-c3ccc(Cl)cc3)nc2c1
IC50 (HeLa): 5.36 µM | IC50 (A549): 4.64 µM | IC50 (HaCaT): > 50 µM | IC50 (MCF7): 8.23 µM

Cc1cc2nc(-c3cn(-c4ccccc4)nc3-c3ccccc3)[nH]c2cc1C
IC50 (HeLa): 41.5 µM | IC50 (A549): 14.5 µM | IC50 (HaCaT): > 50 µM | IC50 (MCF7): > 50 µM

Fc1ccc(-c2nn(-c3ccccc3)cc2-c2nc3cc(Br)ccc3[nH]2)cc1
IC50 (HeLa): 4.94 µM | IC50 (A549): 5.83 µM | IC50 (HaCaT): 21.8 µM | IC50 (MCF7): 3.21 µM

COc1ccc2[nH]c(-c3cn(-c4ccccc4)nc3-c3ccc(Cl)cc3)nc2c1
IC50 (HeLa): 3.63 µM | IC50 (A549): 2.42 µM | IC50 (HaCaT): > 50 µM | IC50 (MCF7): 1.76 µM

Cc1ccc2[nH]c(-c3cn(-c4ccccc4)nc3-c3ccc(F)cc3)nc2c1
IC50 (HeLa): 3.63 µM | IC50 (A549): 1.44 µM | IC50 (HaCaT): > 50 µM | IC50 (MCF7): 1.12 µM

COc1ccc(-c2nn(-c3ccccc3)cc2-c2nc3cc4ccccc4cc3[nH]2)cc1
IC50 (HeLa): 12.4 µM | IC50 (A549): 11.9 µM | IC50 (HaCaT): > 50 µM | IC50 (MCF7): 7.46 µM

Fc1ccc(-c2nn(-c3ccccc3)cc2-c2nc3cc(Cl)c(Cl)cc3[nH]2)cc1
IC50 (HeLa): 11.6 µM | IC50 (A549): 15.7 µM | IC50 (HaCaT): 44.6 µM | IC50 (MCF7): 6.93 µM

COc1ccc(-c2nn(-c3ccccc3)cc2-c2nc3cc(Br)ccc3[nH]2)cc1
IC50 (HeLa): 1.06 µM | IC50 (A549): 6.37 µM | IC50 (HaCaT): > 50 µM | IC50 (MCF7): 1.83 µM

Clc1ccc(-c2nn(-c3ccccc3)cc2-c2nc3cc(Br)ccc3[nH]2)cc1
IC50 (HeLa): 2.16 µM | IC50 (A549): 2.17 µM | IC50 (HaCaT): > 50 µM | IC50 (MCF7): 1.92 µM

Fc1ccc(-c2nn(-c3ccccc3)cc2-c2nc3cc4ccccc4cc3[nH]2)cc1
IC50 (HeLa): 23.6 µM | IC50 (A549): 21.5 µM | IC50 (HaCaT): > 50 µM | IC50 (MCF7): 9.24 µM

COc1ccc(-c2nn(-c3ccccc3)cc2-c2nc3cc(Cl)c(Cl)cc3[nH]2)cc1
IC50 (HeLa): 6.6 µM | IC50 (A549): 7.33 µM | IC50 (HaCaT): > 50 µM | IC50 (MCF7): 13.2 µM

COc1ccc(-c2nn(-c3ccccc3)cc2-c2nc3cc(C)ccc3[nH]2)cc1
IC50 (HeLa): 3.29 µM | IC50 (A549): 5.07 µM | IC50 (HaCaT): > 50 µM | IC50 (MCF7): 6.61 µM

Fc1ccc2[nH]c(-c3cn(-c4ccccc4)nc3-c3ccc(Cl)cc3)nc2c1
IC50 (HeLa): 2.77 µM | IC50 (A549): 4.61 µM | IC50 (HaCaT): > 50 µM | IC50 (MCF7): 2.83 µM

c1ccc(-c2nn(-c3ccccc3)cc2-c2nc3cc4ccccc4cc3[nH]2)cc1
IC50 (HeLa): 21.3 µM | IC50 (A549): 19.3 µM | IC50 (HaCaT): > 50 µM | IC50 (MCF7): 12.6 µM

c1ccc(-c2nn(-c3ccccc3)cc2-c2nc3ccccc3[nH]2)cc1
IC50 (HeLa): 1.55 µM | IC50 (A549): 2.71 µM | IC50 (HaCaT): > 50 µM | IC50 (MCF7): 3.19 µM

O=Cc1cn(-c2ccccc2)nc1-c1ccc(F)cc1
IC50 (HeLa): 16.6 µM | IC50 (A549): 8.66 µM | IC50 (HaCaT): > 50 µM | IC50 (MCF7): 24.8 µM

O=c1[nH]cc(F)c(=O)[nH]1 [FLUOROURACIL]
IC50 (HeLa): 4.6 µM | IC50 (A549): 2.13 µM | IC50 (HaCaT): 15.3 µM | IC50 (MCF7): 2.36 µM

COc1ccc2[nH]c(-c3cn(-c4ccccc4)nc3-c3ccc(F)cc3)nc2c1
IC50 (HeLa): 7.51 µM | IC50 (A549): 1.96 µM | IC50 (HaCaT): > 50 µM | IC50 (MCF7): 0.97 µM

COc1ccc(-c2nn(-c3ccccc3)cc2-c2nc3cc(C)c(C)cc3[nH]2)cc1
IC50 (HeLa): 8.93 µM | IC50 (A549): 5.85 µM | IC50 (HaCaT): 21.4 µM | IC50 (MCF7): 12.8 µM

COc1ccc(-c2nn(-c3ccccc3)cc2-c2nc3cc(OC)ccc3[nH]2)cc1
IC50 (HeLa): 1.14 µM | IC50 (A549): 22.7 µM | IC50 (HaCaT): > 50 µM | IC50 (MCF7): 3.13 µM

Cc1cc2nc(-c3cn(-c4ccccc4)nc3-c3ccc(Cl)cc3)[nH]c2cc1C
IC50 (HeLa): 21.8 µM | IC50 (A549): 17.7 µM | IC50 (HaCaT): > 50 µM | IC50 (MCF7): 13 µM

Clc1ccc(-c2nn(-c3ccccc3)cc2-c2nc3cc(Cl)c(Cl)cc3[nH]2)cc1
IC50 (HeLa): 12.1 µM | IC50 (A549): 19.1 µM | IC50 (HaCaT): > 50 µM | IC50 (MCF7): 48.3 µM
